Measurements: US5958903A, “Galanthamine derivatives, and their pharmaceutical compositions” (priority 1995, dated 1999)

Target: T1, acetylcholinesterase (Electrophorus electricus, UniProt O42275)
T1 construct: purchased SIGMA C 2888; host or cells: electric organ of Electrophorus electricus
Assay: cholinesterase inhibitory activity: acetylcholinesterase activity by the Ellman method
Assay type: biochemical
Details: acetylthiocholine iodide substrate, DTNB, phosphate buffer pH 8, 25° C., absorbance at 412 nm; read-out: IC50 ± SD (inhibitory concentration at 50% activity of the enzyme)
Experimental: In order to measure the cholinesterase inhibitory activity of the compounds of the invention, the enzymatic activity of acetylcholinesterase is evaluated by the Ellman method (Biochemical Pharmacology, 1961, Vol. 7 pp 88-95, Ellman et al.).
The principle of the method comprises measuring the rate of thiocholine at the time of hydrolysis of the acetylcholine by the enzyme. The hydrolysis is accompanied by a continuous reaction between thiocholine and 5,5'-dithio-2-nitrobenzoic acid (DTNB) which leads to the formation of the yellow colored 5-thio-2-nitrobenzoate anion. The rate of the formation of the anion is measured by absorbance at 412 nm.
The material used is comprised of a 0.1 M (pH 8) phosphate buffer: Na2 HPO4 /NaH2 PO4, an enzyme: acetylcholinesterase from the electrical organ of the electric ray Electrophorus electricus (SIGMA C 2888) purified on Sephadex resin, a substrate: acetylthiocholine iodide 7.5 mM (21.67 mg/10 ml of phosphate buffer) and a reagant: 5,5'-dithio-2-nitrobenzoic acid (DTNB) 10 mM (39.6mg / 10 ml of phosphate buffer).
Thus 3 ml of phosphate buffer, 100 μl of DTNB, 2 μl enzyme, 3.3 μl of the compound according to the invention, and 200 μl of substrate are mixed at 25° C., subsequently the change of absorbance at 412 nm is measured immediately.

T1 sequence (O42275 24-633): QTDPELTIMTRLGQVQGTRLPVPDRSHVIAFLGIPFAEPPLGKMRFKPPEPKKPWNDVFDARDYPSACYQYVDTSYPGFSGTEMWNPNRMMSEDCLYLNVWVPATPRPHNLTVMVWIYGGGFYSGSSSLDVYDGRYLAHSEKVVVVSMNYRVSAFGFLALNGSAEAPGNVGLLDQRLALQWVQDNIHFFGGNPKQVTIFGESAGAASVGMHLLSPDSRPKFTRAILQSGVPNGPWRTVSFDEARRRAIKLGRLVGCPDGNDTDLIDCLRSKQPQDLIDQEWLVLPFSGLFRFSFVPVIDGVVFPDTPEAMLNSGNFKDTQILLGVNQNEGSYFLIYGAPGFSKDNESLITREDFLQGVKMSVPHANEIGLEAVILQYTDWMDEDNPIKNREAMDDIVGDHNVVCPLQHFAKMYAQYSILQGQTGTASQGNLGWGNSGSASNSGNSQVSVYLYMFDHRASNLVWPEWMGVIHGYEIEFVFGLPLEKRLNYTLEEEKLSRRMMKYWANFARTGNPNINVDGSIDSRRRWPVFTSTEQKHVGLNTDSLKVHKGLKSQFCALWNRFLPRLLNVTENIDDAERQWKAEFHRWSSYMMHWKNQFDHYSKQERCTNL

COc1ccc2c3c1O[C@H]1C[C@@H](O)C=C[C@@]31CC[N+](C)=C2 [Example 1, galanthaminium methanesulfonate]
IC50: 80 ± 2 nM

COc1ccc2c3c1O[C@H]1C[C@@H](O)C=C[C@@]31CC[N+](CCCCCCn1cccc1)=C2 [Example 11, 10-N-demethyl-10-N-(6'pyrrolohexyl)-galanthaminium bromohydrate]
IC50: 170 ± 10 nM
